Measurements from patent publication US20120196824A1, “THERAPEUTIC AGENT FOR CEREBRAL INFARCTION” (MITSUBISHI TANABE PHARMA CORPORATION, priority 2009, published 2012).
Structures can show the parent of a compound that is named as a salt.

Each compound was assayed against T1, Human-recombinant-S-Adenosyl-L-Homocysteine Hydrolase (Homo sapiens, UniProt P23526) (assay: Measurement of enzyme inhibitory activity (hydrolysis of S-Adenosyl-L-Homocysteine, HPLC)). Settings: S-Adenosyl-L-Homocysteine 10 μM, pH 7.2, 37° C., 15 min.
T1 construct: purchased Diazyme Laboratories
T1 sequence (P23526 whole entry): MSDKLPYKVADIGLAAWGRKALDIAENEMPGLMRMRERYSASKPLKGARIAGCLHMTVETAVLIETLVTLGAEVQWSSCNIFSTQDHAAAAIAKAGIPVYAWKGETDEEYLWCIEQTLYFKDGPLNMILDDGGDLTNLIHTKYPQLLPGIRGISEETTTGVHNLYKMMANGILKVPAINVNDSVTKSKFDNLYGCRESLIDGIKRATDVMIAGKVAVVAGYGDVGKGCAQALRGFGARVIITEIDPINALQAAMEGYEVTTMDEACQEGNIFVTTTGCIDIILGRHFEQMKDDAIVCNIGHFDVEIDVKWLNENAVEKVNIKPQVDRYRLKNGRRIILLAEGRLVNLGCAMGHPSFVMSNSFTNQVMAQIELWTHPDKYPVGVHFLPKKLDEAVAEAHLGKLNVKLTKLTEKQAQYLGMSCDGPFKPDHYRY
Format: biochemical
Procedure: The enzyme inhibitory activity of the compounds of the Examples was measured using the hydrolysis activity of S-Adenosyl-L-Homocysteine as an index. The measurement method was modification of the method of Henry H. Richards et al. (J. Biol. Chem. 253, 4476-4480, 1978). That is, S-Adenosyl-L-Homocysteine (10 μM) and Adenosine Deaminase (Roche) (4 units) were added to 50 mM phosphate buffer (pH 7.2, containing 1 mM EDTA) with the total amount being 200 μl, and to the solution were added a test substance and then Human-recombinant-S-Adenosyl-L-Homocysteine Hydrolase (50 ng, Diazyme Laboratories) to start the reaction, and the mixture was incubated at 37° C. for 15 min. The reaction was quenched by the addition of 1N aqueous perchloric solution (20 μl), and the mixture was centrifuged under the conditions of 10000 rpm, 5 min, 4° C. The supernatant was collected, and the amount of S-Adenosyl-L-Homocysteine after the reaction was quantified by HPLC. The column used was a reversed-phase column. The detailed conditions of HPLC were as follows.
column used: Wakopak^R HandyODS 150*4.6 mm (Wako Pure Chemical Industries, Ltd.) elution condition: 1.0 ml/min elution solvent: 0.1M acetate buffer (pH 4.0) containing 10 mM 1-heptanesulfonic acid containing 4% acetonitrile wavelength: 258 nm (UV) The inhibitory rate was determined with the amount of decrease in S-Adenosyl-L-Homocysteine before and after the reaction without using the test substance as 100%.
Inhibitory rate (%)={(amount of decrease of S-Adenosyl-L-Homocysteine in the presence of test substance)/(amount of decrease of S-Adenosyl-L-Homocysteine in the absence of test substance)}×100

Row | SMILES | IC50 [nM]
1 | Cc1cc2c(cnn2C)cc1N(CC(=O)NCCNC(C)C)CC(=O)N(C)N1Cc2ccccc2C1 [Example 242, N^2-{2-[1,3-dihydro-2H-isoindol-2-yl(methyl)amino]-2-oxoethyl}-N^2-(1,6-dimethyl-1H-indazol-5-yl)-N^1-[2-(isopropylamino)ethyl]glycinamide hydrochloride] | 6
2 | CCNCCNC(=O)CN(CC(=O)N(C)N1Cc2ccccc2C1)c1cc2cn(C)nc2cc1C [Example 243, N^2-{2-[1,3-dihydro-2H-isoindol-2-yl(methyl)amino]-2-oxoethyl}-N^2-(2,6-dimethyl-2H-indazol-5-yl)-N^1-[2-(ethylamino)ethyl]glycinamide hydrochloride] | 7
3 | CCNCCNC(=O)CN(CC(=O)N(C)N1Cc2ccccc2C1)c1cc2cn(CC)nc2cc1C [Example 247, N^2-{2-[1,3-dihydro-2H-isoindol-2-yl(methyl)amino]-2-oxoethyl}-N^2-(2-ethyl-6-methyl-2H-indazol-5-yl)-N^1-[2-(ethylamino)ethyl]glycinamide hydrochloride] | 15
4 | CCNCCNC(=O)CN(CC(=O)N(C)N1Cc2ccc(F)cc2C1)c1cc2c(C)nn(C)c2cc1C [Example 256, N^2-{2-[(5-fluoro-1,3-dihydro-2H-isoindol-2-yl)(methyl)amino]-2-oxoethyl}-N^2-(1,3,6-trimethyl-1H-indazol-5-yl)-N^1-[2-(ethylamino)ethyl]glycinamide hydrochloride] | 47
5 | CCNCCNC(=O)CN(CC(=O)N(C)N1Cc2ccc(F)cc2C1)c1cc2c(cnn2C)cc1C [Example 259, N^2-(1,5-dimethyl-1H-indazol-6-yl)-N^2-{2-[(5-fluoro-1,3-dihydro-2H-isoindol-2-yl)(methyl)amino]-2-oxoethyl}-N^1-[2-(ethylamino)ethyl]glycinamide hydrochloride] | 30
6 | CCNCCNC(=O)CN(CC(=O)N(C)N1Cc2ccc(F)cc2C1)c1cc2c(cc1C)c(CC)nn2CC(F)F [Example 279, N^2-[1-(2,2-difluoroethyl)-3-ethyl-5-methyl-1H-indazol-6-yl]-N^2-{2-[(5-fluoro-1,3-dihydro-2H-isoindol-2-yl)(methyl)amino]-2-oxoethyl}-N^1-[2-(ethylamino)ethyl]glycinamide hydrochloride] | 66

Now from value to compound:

Row | IC50 [nM] | SMILES
7 | 33 | CCNCCNC(=O)CN(CC(=O)N(C)N1Cc2ccccc2C1)c1cc2c(cc1C)CN(CC)C2=O [Example 284, N^2-{2-[1,3-dihydro-2H-isoindol-2-yl(methyl)amino]-2-oxoethyl}-N^2-(2-ethyl-6-methyl-3-oxo-2,3-dihydro-1H-isoindol-5-yl)-N^1-[2-(ethylamino)ethyl]glycinamide dihydrochloride]
8 | 58 | CCNCCNC(=O)CN(CC(=O)N(C)N1Cc2ccccc2C1)c1cc(-c2noc(C(F)(F)F)n2)ccc1C [Example 287, N^2-{2-[1,3-dihydro-2H-isoindol-2-yl(methyl)amino]-2-oxoethyl}-N^2-{2-methyl-5-[5-(trifluoromethyl)-1,2,4-oxadiazol-3-yl]phenyl}-N^1-[2-(ethylamino)ethyl]glycinamide dihydrochloride]
9 | 76 | CCNCCNC(=O)CN(CC(=O)N(C)N1Cc2ccccc2C1)c1ccc(-c2noc(C(F)(F)F)n2)cc1C [Example 289, N^2-{2-[1,3-dihydro-2H-isoindol-2-yl(methyl)amino]-2-oxoethyl}-N^2-{2-methyl-4-[5-(trifluoromethyl)-1,2,4-oxadiazol-3-yl]phenyl}-N^1-[2-(ethylamino)ethyl]glycinamide dihydrochloride]
10 | 50 | CCNCCNC(=O)CN(CC(=O)N(C)N1Cc2ccccc2C1)c1ccc(N2CCCC2=O)cc1C [Example 298, N^2-{2-[1,3-dihydro-2H-isoindol-2-yl(methyl)amino]-2-oxoethyl}-N^2-[2-methyl-4-(2-oxopyrrolidin-1-yl)phenyl]-N^1-[2-(ethylamino)ethyl]glycinamide dihydrochloride]
